Source: paper PMC4955970, “Stable, synthetic analogs of diadenosine tetraphosphate inhibit rat and human P2X3 receptors and inflammatory pain” (Molecular Pain, 2016)
Read-outs that look alike come from different tables or passages of the source.

Legend:
[1] = target: T1, rat homomeric P2X3 receptors (Rattus norvegicus, UniProt P49654); test: Whole-cell patch clamp on HEK293 cells expressing rat homomeric P2X3R (activation and HAD inhibition of α,β-meATP test pulses); assay type: cell-based; conditions: for nH of activation curve: partial agonist dose-response
T1 construct: transfected with rat or human full-length P2X3 cDNA subcloned into pIRES2-EGFP; expressed in transfected cells; host or cells: HEK293T (HEK293 in the results)
T1 sequence (P49654 1-397): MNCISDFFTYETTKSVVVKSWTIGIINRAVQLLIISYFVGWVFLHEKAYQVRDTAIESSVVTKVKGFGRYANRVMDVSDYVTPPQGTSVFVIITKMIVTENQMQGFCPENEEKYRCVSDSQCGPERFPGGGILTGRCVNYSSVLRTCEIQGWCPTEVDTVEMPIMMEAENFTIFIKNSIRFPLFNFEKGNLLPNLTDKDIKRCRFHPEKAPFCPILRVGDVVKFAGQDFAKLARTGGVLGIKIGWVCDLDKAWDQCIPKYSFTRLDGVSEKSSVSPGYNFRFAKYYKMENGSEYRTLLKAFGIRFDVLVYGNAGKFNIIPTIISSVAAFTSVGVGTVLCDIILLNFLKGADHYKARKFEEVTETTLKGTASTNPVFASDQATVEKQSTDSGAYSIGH
Procedure: (§1) Rat trigeminal, nodose, or dorsal root ganglion (TG, NG, and DRG, respectivley) neurons in culture were prepared as described previously.[46],[47] Neurons were plated on poly-L-lysine (0.2 mg/ml)-coated Petri dishes and cultured for one to two days under an atmosphere containing 5% CO2. Cells were used within two days of plating when they lacked processes. HEK293T cells were prepared as reported previously[32],[48] and transfected with rat or human full-length P2X3 cDNA subcloned into pIRES2-EGFP (Clontech, Mountain View, CA, USA).
(§2) TG, NG, DRG, or HEK cells were recorded in the whole-cell configuration while being continuously superfused (at 2 ml/min) with control solution containing (in mM): 152 NaCl, 5 KCl, 1 MgCl2, 2 CaCl2, 10 glucose, and 10 HEPES; pH was adjusted to 7.4 with NaOH and osmolarity was adjusted to 320 mOsM with glucose. […] Responses to selective P2X3R agonist α,β-methylene-ATP (α,β-meATP; resistant to ectoATPase hydrolysis, Sigma-Aldrich) were measured using an EPC-9 amplifier operated by HEKA Patch Master software (HEKA Electronik, Germany). Cells were voltage-clamped at −70 mV. In most cells, series resistance was compensated by 80%. To determine EC50 values, dose-response curves were constructed for α,β-meATP by administering different agonist doses same cells and fitting data to a logistic equation (Origin 8.0, Microcal, Northampton, MA).
Agonists and antagonists were applied (usually for 2 s) via a rapid superfusion system (Rapid Solution Changer RSC-200; BioLogic Science Instruments, Grenoble, France) placed 100 to 150 µm near the cell. The time for the solution exchange across the cell was approximately 30 ms, as judged with liquid junction potential measurements. All chemicals, including enzymes for cell culture, were from Sigma-Aldrich (St. Louis, MO). Culture media were obtained from Invitrogen (Milan, Italy).
The peak amplitudes of the responses were measured using HEKA Patch Master software. For each agonist, dose-response plots were constructed by normalizing data with respect to the maximum response. All data are presented as mean ± SEM (n = the number of cells) with statistical significance assessed by paired t-test (for parametric data) or Mann-Whitney rank-sum test (for nonparametric data). Best fits of data with a sigmoid function were compared with respective control fits using Origin 8.0 software. A value of p < 0.05 was accepted as indicative of statistically significant difference.
Figure 2. Activation and inhibition of rat P2X3 receptors by AppNHppA. Top: Experimental protocol. Test pulses of 10 µM of α,β-meATP were delivered every 2 min. After two control pulses, AppNHppA at different concentrations was applied for 6 min. Example traces of P2X3R-mediated currents in control and after 2 min application of 10 nM (a) and 3 μM (b) of AppNHppA (corresponding to the part of the experimental protocol outlined by a dotted box). (c) The time course of the current inhibition by AppNHppA at different (1 nM–3 μM) concentrations (n = 4–6). Current amplitudes are normalized to control. (d) Dose-response curves for the activation and inhibition of P2X3-mediated currents by AppNHppA.

[2] = test system: native P2X3Rs / P2X2/3Rs in NG neurons; test: Whole-cell recording of α,β-meATP currents in cultured nodose ganglion (NG) neurons; assay type: cell-based, rat; conditions: 1 µM, 6 min; 10 µM α,β-meATP
Procedure: as §1
as §2, with “MA). […]” for “MA).”

[3] = target: T2, native P2X3Rs / P2X2/3Rs in NG neurons (Rattus norvegicus, UniProt P49653+P49654); test: as above; assay type: cell-based; conditions: read-out: inhibition of sustained residual component in NG neurons
T2 construct: effects of AppNHppA on native P2X3Rs in TG, DRG, and NG neurons were investigated; while NG neurons express heteromeric P2X2/3Rs subunits; endogenous in cells; host or cells: cultured rat nodose ganglion (NG) neurons
T2 sequence (P49654 1-397): T1 sequence (P49654 1-397)
T2 sequence (P49653 1-472): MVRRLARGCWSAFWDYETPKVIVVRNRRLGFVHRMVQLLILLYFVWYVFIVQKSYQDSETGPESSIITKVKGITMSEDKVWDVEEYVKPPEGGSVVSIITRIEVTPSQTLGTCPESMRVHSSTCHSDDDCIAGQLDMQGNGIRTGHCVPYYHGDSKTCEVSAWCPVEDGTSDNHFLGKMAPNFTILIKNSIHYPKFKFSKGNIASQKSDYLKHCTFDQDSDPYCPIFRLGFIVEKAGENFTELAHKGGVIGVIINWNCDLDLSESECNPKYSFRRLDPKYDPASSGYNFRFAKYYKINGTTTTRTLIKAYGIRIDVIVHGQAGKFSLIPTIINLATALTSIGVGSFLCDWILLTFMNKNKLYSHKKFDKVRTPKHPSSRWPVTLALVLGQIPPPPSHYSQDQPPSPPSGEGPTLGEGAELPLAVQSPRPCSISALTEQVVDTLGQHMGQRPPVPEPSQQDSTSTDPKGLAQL
Procedure: as §1
as §2, with “MA). […]” for “MA).”

In the case of `Nc1ncnc2c1ncn2[C@@H]1O[C@H](COP(=O)(O)OP(=O)(O)CP(=O)(O)OP(=O)(O)OC[C@H]2O[C@@H](n3cnc4c(N)ncnc43)C(O)C2O)C(O)C1O` (stereo partly drawn) [AppCH2ppA, diadenosine 5′,5′′′-P^1,P^4-(β,γ-methylene)tetraphosphate], the “depression of P2X3R currents at high rate of activation” value ([1]; 1 µM, α,β-meATP pulses every 30 s) is reported as 81 ± 3%, the “depression of P2X3R currents at low rate of activation” value ([1]; 1 µM, α,β-meATP pulses every 2 min) is reported as 61.3 ± 5% and the IC50 ([1]; 6 min after drug application, test pulse 10 µM α,β-meATP, read-out: IC50 of HAD inhibition of P2X3R currents) is reported as 0.55 ± 0.2 µM. For the same compound, the EC50 ([1]; HEK293 rat P2X3R, read-out: EC50 of partial agonist P2X3R activation) was 9.3 ± 1.7 µM and the “nH of activation curve” value [1] was 2.27 ± 0.56.

For `Nc1ncnc2c1ncn2[C@@H]1O[C@H](COP(=O)(O)OP(=O)(O)NP(=O)(O)OP(=O)(O)OC[C@H]2O[C@@H](n3cnc4c(N)ncnc43)[C@H](O)[C@@H]2O)[C@@H](O)[C@H]1O` [AppNHppA, diadenosine 5′,5′′′-P^1,P^4-(β,γ-imido)tetraphosphate], the “inhibition of peak currents in NG neurons” value [2] was 16.8 ± 11.8%, the inhibition at 1 µM [3] was 2 ± 4% and the IC50 [1] was 0.2 ± 0.04 µM. For the same compound, the “amplitude of α,β-meATP test response after application” value ([1]; 10 nM, test pulse 10 µM α,β-meATP, 2-min interval) was “almost unchanged”, the “reduction of α,β-meATP test responses (HAD effect)” value ([1]; 100 nM, below activation threshold) was 38.2 ± 8.5% and the “inhibition of α,β-meATP test responses (HAD effect)” value ([1]; 3 µM, test pulse 10 µM α,β-meATP, 2-min interval) was “complete inhibition”. For the same compound, the “induction of membrane currents” value ([1]; 0.1 or 1 µM, HEK293 rat homomeric P2X3R) was “not to induce membrane currents”, the currents generated ([1]; 10 or 100 µM, HEK293 rat homomeric P2X3R) was “small and slowly desensitizing currents” and the EC50 ([1]; EC50 of activation (summary restatement), rat P2X3R, summary statement) was 41 µM. For the same compound, the EC50 ([1]; EC50 of partial agonist P2X3R activation, HEK293 rat P2X3R) was 41.6 ± 1.3 µM, the “inhibitory action in presence of G-protein inhibitor GDP-β-S” value ([1]; GDP-β-S 500 µM introduced into cells) was “remained unchanged” and the inhibition at 1 µM ([1]; HEK293, read-out: inhibitory action on P2X3 receptors with GDP-β-S in intracellular solution) was 23.9 ± 5.24%. For the same compound, the inhibition at 1 µM ([1]; HEK293, read-out: inhibitory action on P2X3 receptors with GTP in intracellular solution) was 23.4 ± 2.01%, the “agonist type at homomeric P2X3Rs” value ([1]; compared with full agonist α,β-meATP) was “only a partial agonist” and the “nH of activation curve” value [1] was 1.58 ± 0.05. For the same compound, the “EC50/IC50 ratio (activation/inhibition index)” value ([1]; rat P2X3R) was 205 and the “current response relative to response induced by 10 µM α,β-meATP” value ([1]; saturating 1 mM, same cell) was 41.2 ± 13%.
